# Test results: patent US9511086B2, “Method for improving immune system function by administering agents that inhibit DNA-dependent protein kinase-directed apoptosis” (The Board of Trustees of the Leland Stanford Junior …, priority 2010, dated 2016)
# T1: IL-1R type I (Homo sapiens, UniProt P14778)
# T1 sequence (P14778 18-569): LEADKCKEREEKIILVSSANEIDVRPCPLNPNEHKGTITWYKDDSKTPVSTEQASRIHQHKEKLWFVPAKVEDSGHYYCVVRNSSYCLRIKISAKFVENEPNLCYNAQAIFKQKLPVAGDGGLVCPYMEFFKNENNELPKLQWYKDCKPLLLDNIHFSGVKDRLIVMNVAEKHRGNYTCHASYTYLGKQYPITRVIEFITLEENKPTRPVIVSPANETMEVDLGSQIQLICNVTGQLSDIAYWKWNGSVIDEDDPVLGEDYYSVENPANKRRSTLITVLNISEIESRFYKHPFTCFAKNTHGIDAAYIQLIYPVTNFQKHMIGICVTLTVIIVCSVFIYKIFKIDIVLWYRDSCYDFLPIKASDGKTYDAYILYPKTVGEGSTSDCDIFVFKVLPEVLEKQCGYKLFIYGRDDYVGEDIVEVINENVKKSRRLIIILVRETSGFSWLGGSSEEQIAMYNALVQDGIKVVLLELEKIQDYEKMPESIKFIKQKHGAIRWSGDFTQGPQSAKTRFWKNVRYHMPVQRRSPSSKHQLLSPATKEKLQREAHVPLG
# Key:
# IL-1R type I = target: T1, IL-1R type I; settings: cited from earlier work
# [1] = system: CD4+CD45RO− T cells from RA patients and controls; experiment: T-cell apoptosis (PI) with homeostatic cytokines; type: cell-based, human; settings: 72 h culture; IL-2 20 U/ml, IL-7 20 ng/ml, IL-15 10 ng/ml; similar in control and RA T cells
# Procedure: FIG. 1. […] CD4+CD45RO− T cells were isolated from the peripheral blood of RA patients and controls. Cells were maintained in culture without mitogenic stimulation for 72 h. (A) T cells undergoing apoptosis were identified by Annexin V and 7-AAD staining in patient-derived and control samples. Data are given as mean±SEM from 6 patients and 6 controls. (B) Representative data from one patient and one control collected after 72 h are shown. (C) Cells were maintained in culture with IL-2 (20 U/ml), IL-7 (20 ng/ml), IL-15 (10 ng/ml), or a mixture of the three (Mix) for 72 h. T cells undergoing apoptosis were identified by PI staining. Data are given as mean±SEM from 7 patients and 5 controls. (D) DNA breaks were quantified by comet assay after 72 h. Data are given as mean±SEM of 7 patients and 6 controls with a minimum of 90 individual cells analyzed in each sample.
# To quantify T-cell apoptosis, CD4^+CD45RO^− cells were washed and suspended in 500 μl FACS buffer supplemented with EasyComp Blank Particles (Spherotech, Lake Forest, Ill.). Uptake of PI (Sigma-Aldrich) was determined by flow cytometry. Apoptotic cells were detected with PE-Annexin V (BD Biosciences, San Jose, Calif.) and 7-AAD (BD Biosciences).
# Bmf = Bmf protein level by flow cytometry in RA T cells; type: cell-based, human; settings: treated vs untreated
# Procedure: (§1) FIG. 8. The DNA-PKcs-JNK pathway upregulates the apoptogenic molecules Bim and Bmf in RA CD4+ T cells. CD4+CD45RO− T cells were isolated from the peripheral blood of 6 controls and 6 RA patients. Cells were maintained in culture without mitogenic stimulation for 72 h. (A) Puma, Noxa, Bim and Bmf transcript levels in freshly isolated cells were quantified by qPCR. Data are presented as mean±SEM. (B) Flow cytometry analysis of Bim levels in control and RA naïve T cells after 72 h of culture. Expression of Bim protein in n=5 RA and n=5 controls samples is given as MFI of Alexa Fluor 488 Bim. (C) Flow cytometry analysis of Bmf levels in control and RA naïve T cells. Expression of Bmf protein in n=6 RA and n=4 controls samples is given as MFI of PE Bmf. (D) Bcl-2 protein levels were analyzed by flow cytometry. Expression of Bcl-2 protein in n=6 RA and n=6 control samples is given as MFI of FITC Bcl-2. (E) Bim protein level in the absence and presence of the DNA-PKcs inhibitor were analyzed by flow cytometry in samples from 4 RA patients. […]
# (§2) For intracellular staining, cells were fixed directly with 1.5% formaldehyde for 10 min at room temperature and resuspended in 90% methanol. […] Proteins or 8-oxoguanine expression were detected by an LSRII flow cytometer (BD Biosciences). Data were analyzed by FlowJo software (Tree Star Inc., Ashland, Oreg.). […]
# Bim = Bim protein level by flow cytometry in RA T cells; type: cell-based, human; settings: treated vs untreated
# Procedure: as §1, §2
# [2] = system: CD4+CD45RO− T cells from RA patients; experiment: T-cell apoptosis by flow cytometry staining for PI, RA T cells; type: cell-based, human
# Procedure: FIG. 5. Inhibition of DNA-PKcs activity protects RA T cells from apoptosis. CD4+CD45RO− T cells were isolated from 6 control donors and 7 RA patients. Cells were maintained in culture without stimulation for 48 h and then were treated with the DNA-PKcs inhibitor IC86621 (50 nM, 100 nM) or vehicle for 24 h. Cells were harvested and (A) T-cell apoptosis was measured by flow cytometry staining for PI. Representative cytometric data from one patient and one control are shown. (B) Frequencies of PI-positive T-cells in the absence and presence of the DNA-PKcs inhibitor from 6 controls and 7 RA patients are presented as mean±SEM.
# FIG. 6. Silencing of the DNA-PKcs gene reduces apoptosis in RA T cells. CD4+CD45RO− T cells were purified from 3 control donors and 3 RA patients and transfected with control or DNA-PKcs specific siRNA oligonucleotides by nucleofection. (A, B) Twenty-four hours after transfection, DNA-PKcs transcript levels were quantified by qPCR, and DNA-PKcs protein levels were detected by Western blotting. (C) T-cell apoptosis was analyzed by staining for PI. Representative data from one patient and one control are shown. (D) Cell apoptosis from 3 control and 3 RA samples are presented as mean±SEM.
# FIG. 7. […] (A) CD4+CD45RO− T cells were isolated and cultured in the presence of the indicated enzyme inhibitors for 24 h. T-cell apoptosis was quantified through flow cytometry staining for PI. (B) Cells were maintained in culture without stimulation for 48 h and then were treated with the JNK inhibitor. PI-positive T cells were measured after 24 h of treatment with the JNK inhibitor II (5 μM or 10 μM) or vehicle. Frequencies of apoptotic T cells from 6 controls and 7 RA patients are presented as mean±SEM. (C) Representative flow cytometry results from one control and one patient. (D) Flow cytometry analysis of phosphorylated JNK levels in control and RA T cells after culturing without mitogenic stimulation for 72 h. Representative data from one patient and one control are presented. (E) Expression of pJNK protein in n=6 RA and n=6 control samples at 72 h is given as MFI of FITC-pJNK. (F) Flow cytometry analysis of phosphorylated JNK levels in freshly isolated control and RA naïve CD4 T cells. Expression of pJNK protein in n=7 RA and n=7 control samples at day 0 is given as MFI of FITC-pJNK. (G) Quantification of JNK and pJNK protein expression at 72 h by Western blotting. (H) Relative expression levels of pJNK were quantified by measuring band intensities adjusted by total JNK in 6 RA patients and 6 control donors. Data are presented as mean±SEM. (I) CD4+CD45RO− T cells were purified from RA donors and transfected with control or DNA-PKcs-specific siRNA oligonucleotides by nucleofection. Twenty-four hours after transfection, DNA-PKcs and pJNK protein levels were detected by Western blotting. A representative blot from three independent experiments is shown.
# Peripheral blood mononuclear cells (PBMC) were separated from whole blood with Lymphocyte Separation Medium (Mediatech Inc., Herndon, Va.). CD45RO^− cells were negatively selected with microbeads (Miltenyi Biotec Inc., Auburn, Calif.), and the naïve CD4^+CD45RO^− population was subsequently selected with CD4 microbeads (autoMACS, Miltenyi Biotec Inc.).
# CD4^+CD45RO^− T cells were maintained in a resting state in DMEM without mitogenic stimulation for three days. In selected experiments, T-cell homeostatic cytokines were supplemented. To test for the role of signaling networks in mediating apoptosis, the following inhibitors were added to the cultures at day 0: DNA-PKcs inhibitor IC86621 (Sigma-Aldrich, St. Louis, Mo.), JNK inhibitor II (Calbiochem, La Jolla, Calif.), p38 inhibitor (Alexis Biochemicals, Plymouth Meeting, Pa., SB203580), CaM inhibitor (Calbiochem), NE-KB inhibitor (Calbiochem), and AKT inhibitor (Calbiochem). […]
# TNFα = TNFα (Homo sapiens, UniProt P01375); settings: cited from earlier work
# rheumatoid arthritis = settings: cited from earlier work
# [3] = system: B cells in blood and tissue; settings: cynomolgus monkeys; cited from earlier work
# Chain of TNFα (P01375 77-233 limits assumed): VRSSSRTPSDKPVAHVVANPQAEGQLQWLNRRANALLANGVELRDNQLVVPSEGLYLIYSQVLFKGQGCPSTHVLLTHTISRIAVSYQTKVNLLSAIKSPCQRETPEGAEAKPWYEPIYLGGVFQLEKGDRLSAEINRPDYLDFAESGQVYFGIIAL
molecule,measurement,setting,value
Anakinra: human recombinant IL-1 receptor antagonist,affinity of binding to IL-1R type I,IL-1R type I,same affinity as IL-1
"IL-15: growth-promoting, T-cell homeostatic cytokine",apoptosis rates / T-cell attrition,[1],prevented only one-third of the T-cell attrition
"O=C1c2ccccc2-c2n[nH]c3cccc1c23 [JNK inhibitor II, anthra(1,9-cd)pyrazol-6(2H)-one]",intracellular Bmf levels,Bmf,reduced
same,intracellular Bim levels,Bim,reduced
same,T cell death in screen with panel of signal pathway inhibitors,"[2]; RA T cells cultured with inhibitor for 24 h, PI staining",able to protect RA T cells from dying
same,death rate in dose-response experiments,"[2]; RA T cells, 48 h culture then 5 μM or 10 μM for 24 h",normalize the death rate
same,effectiveness of 10 μM compared with 5 μM,"[2]; RA T cells, PI-positive cells after 24 h of treatment",more effective
Etanercept,affinity for TNFα of the dimeric receptor relative to the monomeric receptor,TNFα,50-1000 fold
"CN(Cc1cnc2nc(N)nc(N)c2n1)c1ccc(C(=O)N[C@@H](CCC(=O)O)C(=O)O)cc1 [MTX, Methotrexate]",patients having some response,rheumatoid arthritis,70%
LymphoStat-B: fully human IgG1λ monoclonal antibody that neutralizes human BlyS,B cells in blood and tissue,[3],selectively reduces B cells in blood and tissue
same,toxicity,[3],no overt toxicity
"IL-7: growth-promoting, T-cell homeostatic cytokine (protein, UniProt P13232 26-177, looked up) Interleukin-7: DCDIEGKDGKQYESVLMVSIDQLLDSMKEIGSNCLNNEFNFFKRHICDANKEGMFLFRAARKLRQFLKMNSTGDFDLHLLKVSEGTTILLNCTGQVKGRKPAALGEAQPTKSLEENKSLKEQKKLNDLCFLKRLLQEIKTCWNKILMGTKEH",apoptosis rates / T-cell attrition,[1],prevented only one-third of the T-cell attrition
